In paper PMC8954747 (Viruses, 2022):
Ends that are not written are not given here.

Target: SCRIB PDZ2 H928A (Homo sapiens, UniProt Q14160, H928A)
Experiment: biochemical
Format: binding

Sequence of SCRIB PDZ2 H928A (Q14160 860-950 H928A limits assumed): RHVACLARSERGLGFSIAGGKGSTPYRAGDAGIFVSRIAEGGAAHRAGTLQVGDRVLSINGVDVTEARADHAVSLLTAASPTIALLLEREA

Q: With KMARTIESEV [Vietnam (ESEV)] as the sequence, how does the Kd read?
A: 3.6 ± 0.7 µM
